Holding throughout (assay): selectivity profiling in a panel of 340 wild-type kinases (Reaction Biology Europe)
What all share (type): binding

Assay [1] has as its target T1, 340 wild-type kinases (Homo sapiens, UniProt O75582).
T1 construct: purchased Reaction Biology Europe
As to conditions: 1 µM 2015; read-out: RPS6KA5 residual activity. The text has this: (§1) Potential interactions between 2015 and 340 wild-type kinases were checked by means of a competition binding assay performed by Reaction Biology Europe (Supplementary Table 15).

Assay [2] addresses T2, 340 wild-type kinases (Homo sapiens, UniProt P11802).
T2 construct: purchased Reaction Biology Europe
As to conditions: CDK4/CycD1; 1 µM; read-out: residual activity.
Excerpt: as §1

For assay [3], the target named is T3, 340 wild-type kinases (Homo sapiens, UniProt P25098).
T3 construct: purchased Reaction Biology Europe
T3 sequence (P25098 1-689): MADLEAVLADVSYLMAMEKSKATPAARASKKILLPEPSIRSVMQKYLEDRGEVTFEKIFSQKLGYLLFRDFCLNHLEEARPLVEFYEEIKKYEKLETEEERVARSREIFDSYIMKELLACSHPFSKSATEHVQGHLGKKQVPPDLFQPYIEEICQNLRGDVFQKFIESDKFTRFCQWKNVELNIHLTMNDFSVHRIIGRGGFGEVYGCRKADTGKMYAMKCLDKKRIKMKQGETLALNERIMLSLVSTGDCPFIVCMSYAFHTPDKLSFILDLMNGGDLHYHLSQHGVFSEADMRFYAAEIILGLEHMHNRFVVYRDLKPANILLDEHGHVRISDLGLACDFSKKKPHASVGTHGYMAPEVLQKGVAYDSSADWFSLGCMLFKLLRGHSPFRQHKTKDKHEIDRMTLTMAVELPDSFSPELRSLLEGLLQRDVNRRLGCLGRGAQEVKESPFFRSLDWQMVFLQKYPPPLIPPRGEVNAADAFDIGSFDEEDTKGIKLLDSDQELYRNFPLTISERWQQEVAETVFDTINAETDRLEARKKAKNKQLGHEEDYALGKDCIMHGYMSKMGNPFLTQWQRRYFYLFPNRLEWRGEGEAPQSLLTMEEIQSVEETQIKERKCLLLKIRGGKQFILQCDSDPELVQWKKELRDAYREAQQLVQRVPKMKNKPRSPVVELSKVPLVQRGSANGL
As to conditions: 1 µM 2015; read-out: GRK2 residual activity.
Excerpt: as §1

The target of assay [4] is T4, 340 wild-type kinases (Homo sapiens, UniProt P27361).
T4 construct: purchased Reaction Biology Europe
T4 sequence (P27361 whole entry): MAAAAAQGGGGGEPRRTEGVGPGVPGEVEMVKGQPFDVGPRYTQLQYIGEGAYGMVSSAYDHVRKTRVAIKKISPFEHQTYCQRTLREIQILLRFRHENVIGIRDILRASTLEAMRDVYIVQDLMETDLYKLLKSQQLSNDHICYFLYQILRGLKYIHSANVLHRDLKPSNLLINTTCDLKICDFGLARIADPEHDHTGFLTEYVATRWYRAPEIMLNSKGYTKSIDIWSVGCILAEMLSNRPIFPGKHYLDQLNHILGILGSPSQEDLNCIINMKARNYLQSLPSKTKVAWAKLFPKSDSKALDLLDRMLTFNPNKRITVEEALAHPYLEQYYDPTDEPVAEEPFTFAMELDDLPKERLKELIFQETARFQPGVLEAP
As to conditions: 0.2 µM 2015; read-out: ERK1 residual activity.
Excerpt: as §1

For assay [5], the target named is T5, 340 wild-type kinases (Homo sapiens, UniProt P48729).
T5 construct: purchased Reaction Biology Europe
T5 sequence (P48729 whole entry): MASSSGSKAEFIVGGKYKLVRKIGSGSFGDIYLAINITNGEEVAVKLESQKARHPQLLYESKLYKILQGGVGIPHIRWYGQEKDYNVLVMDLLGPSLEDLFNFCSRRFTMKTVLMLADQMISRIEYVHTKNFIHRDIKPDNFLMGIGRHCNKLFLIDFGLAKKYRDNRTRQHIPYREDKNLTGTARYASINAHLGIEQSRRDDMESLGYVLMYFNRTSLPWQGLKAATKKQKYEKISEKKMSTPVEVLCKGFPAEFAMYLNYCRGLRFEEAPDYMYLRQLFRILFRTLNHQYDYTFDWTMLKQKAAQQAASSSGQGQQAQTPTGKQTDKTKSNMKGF
The conditions noted are these: 1 µM 2015; read-out: CK1alpha1 residual activity.
Excerpt: as §1

In assay [6] the target is T6, 340 wild-type kinases (Homo sapiens, UniProt Q00537).
T6 construct: purchased Reaction Biology Europe
T6 sequence (Q00537 whole entry): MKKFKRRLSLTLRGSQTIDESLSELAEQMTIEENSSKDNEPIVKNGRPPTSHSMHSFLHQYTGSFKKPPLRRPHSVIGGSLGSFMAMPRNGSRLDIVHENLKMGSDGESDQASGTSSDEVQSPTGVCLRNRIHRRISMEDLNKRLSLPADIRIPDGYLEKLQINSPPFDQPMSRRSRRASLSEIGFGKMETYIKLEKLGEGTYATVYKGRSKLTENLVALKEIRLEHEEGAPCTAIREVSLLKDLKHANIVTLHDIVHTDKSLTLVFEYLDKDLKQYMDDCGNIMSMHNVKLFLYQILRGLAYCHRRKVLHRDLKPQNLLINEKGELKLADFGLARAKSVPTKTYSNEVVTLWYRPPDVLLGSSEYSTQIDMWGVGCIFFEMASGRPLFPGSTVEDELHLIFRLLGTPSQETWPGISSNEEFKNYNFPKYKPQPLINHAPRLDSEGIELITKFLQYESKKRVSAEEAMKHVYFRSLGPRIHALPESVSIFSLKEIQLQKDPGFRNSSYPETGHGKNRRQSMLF
The conditions noted are these: CDK17/p35NCK; 0.2 µM; read-out: residual activity.
Excerpt: as §1

Assay [7] concerns the target T7, 340 wild-type kinases (Homo sapiens, UniProt Q8TDX7).
T7 construct: purchased Reaction Biology Europe
The conditions noted are these: NEK7; 1 µM; read-out: residual activity.
Excerpt: as §1

Assay [8] concerns the target T8, 340 wild-type kinases (Homo sapiens, UniProt Q9HAZ1).
T8 construct: purchased Reaction Biology Europe
As to conditions: 1 µM 2015; read-out: CLK4 residual activity.
Excerpt: as §1

Assay [9] has as its target T9, 340 wild-type kinases (Homo sapiens, UniProt Q9NZJ5).
T9 construct: purchased Reaction Biology Europe
T9 sequence (Q9NZJ5 30-1116): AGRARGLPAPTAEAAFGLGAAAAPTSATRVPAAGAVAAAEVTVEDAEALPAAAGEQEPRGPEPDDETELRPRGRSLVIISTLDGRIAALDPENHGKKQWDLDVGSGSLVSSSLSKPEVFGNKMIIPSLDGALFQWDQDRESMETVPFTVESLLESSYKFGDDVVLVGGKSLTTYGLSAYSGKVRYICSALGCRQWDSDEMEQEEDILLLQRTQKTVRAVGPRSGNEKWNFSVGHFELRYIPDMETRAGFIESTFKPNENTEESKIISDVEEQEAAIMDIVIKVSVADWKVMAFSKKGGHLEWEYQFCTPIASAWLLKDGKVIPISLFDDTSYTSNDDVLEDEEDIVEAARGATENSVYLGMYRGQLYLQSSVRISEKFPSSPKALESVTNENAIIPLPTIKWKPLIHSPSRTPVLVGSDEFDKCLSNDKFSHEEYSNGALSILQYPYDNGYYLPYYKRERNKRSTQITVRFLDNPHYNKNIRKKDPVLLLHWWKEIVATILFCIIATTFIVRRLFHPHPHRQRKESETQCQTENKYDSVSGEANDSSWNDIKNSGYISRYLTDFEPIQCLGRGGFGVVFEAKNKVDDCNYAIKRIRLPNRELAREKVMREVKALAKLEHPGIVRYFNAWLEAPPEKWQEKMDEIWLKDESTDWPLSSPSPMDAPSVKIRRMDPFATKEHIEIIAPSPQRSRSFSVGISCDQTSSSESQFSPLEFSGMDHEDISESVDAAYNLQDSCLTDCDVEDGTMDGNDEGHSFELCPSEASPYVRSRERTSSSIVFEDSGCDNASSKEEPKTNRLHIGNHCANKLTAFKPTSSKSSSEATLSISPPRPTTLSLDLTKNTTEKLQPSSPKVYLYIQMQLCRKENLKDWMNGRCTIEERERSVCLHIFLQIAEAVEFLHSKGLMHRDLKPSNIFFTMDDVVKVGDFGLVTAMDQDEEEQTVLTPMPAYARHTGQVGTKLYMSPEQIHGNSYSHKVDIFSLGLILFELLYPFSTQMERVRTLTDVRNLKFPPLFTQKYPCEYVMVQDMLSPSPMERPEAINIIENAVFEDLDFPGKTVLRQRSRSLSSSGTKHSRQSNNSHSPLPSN
As to conditions: 0.2 µM 2015; read-out: EIF2AK3 residual activity.
Excerpt: as §1

In assay [10] the target is T10, 340 wild-type kinases (Homo sapiens, UniProt Q9UQM7).
T10 construct: purchased Reaction Biology Europe
T10 sequence (Q9UQM7 whole entry): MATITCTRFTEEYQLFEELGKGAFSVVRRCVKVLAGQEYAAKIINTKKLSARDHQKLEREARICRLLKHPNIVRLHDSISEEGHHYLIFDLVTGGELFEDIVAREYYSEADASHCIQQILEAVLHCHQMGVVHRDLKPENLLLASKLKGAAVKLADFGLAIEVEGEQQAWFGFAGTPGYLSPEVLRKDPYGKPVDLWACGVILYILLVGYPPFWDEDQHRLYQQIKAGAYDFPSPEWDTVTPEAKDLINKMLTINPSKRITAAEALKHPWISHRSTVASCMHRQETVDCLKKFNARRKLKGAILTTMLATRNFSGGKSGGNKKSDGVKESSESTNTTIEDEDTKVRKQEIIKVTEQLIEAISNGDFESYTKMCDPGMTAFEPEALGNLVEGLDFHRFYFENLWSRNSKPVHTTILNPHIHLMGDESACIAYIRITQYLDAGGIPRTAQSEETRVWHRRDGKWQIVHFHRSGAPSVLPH
As to conditions: CAMK2A; 0.2 µM; read-out: residual activity.
Excerpt: as §1

T8 sequence (Q9HAZ1 whole entry): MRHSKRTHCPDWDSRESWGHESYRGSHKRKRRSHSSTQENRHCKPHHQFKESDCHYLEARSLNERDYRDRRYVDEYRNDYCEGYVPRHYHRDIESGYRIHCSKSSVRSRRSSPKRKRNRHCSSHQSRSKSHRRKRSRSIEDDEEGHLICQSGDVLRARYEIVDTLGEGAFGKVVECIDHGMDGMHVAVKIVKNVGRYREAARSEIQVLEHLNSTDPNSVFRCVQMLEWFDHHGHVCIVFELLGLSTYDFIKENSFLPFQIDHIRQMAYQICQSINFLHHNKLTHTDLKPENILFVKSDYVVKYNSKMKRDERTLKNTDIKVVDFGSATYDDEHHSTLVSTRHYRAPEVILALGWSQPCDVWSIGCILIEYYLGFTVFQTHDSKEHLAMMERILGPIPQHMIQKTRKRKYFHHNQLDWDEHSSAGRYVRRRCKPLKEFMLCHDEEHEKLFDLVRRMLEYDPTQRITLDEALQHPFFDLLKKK
T2 sequence (P11802 whole entry): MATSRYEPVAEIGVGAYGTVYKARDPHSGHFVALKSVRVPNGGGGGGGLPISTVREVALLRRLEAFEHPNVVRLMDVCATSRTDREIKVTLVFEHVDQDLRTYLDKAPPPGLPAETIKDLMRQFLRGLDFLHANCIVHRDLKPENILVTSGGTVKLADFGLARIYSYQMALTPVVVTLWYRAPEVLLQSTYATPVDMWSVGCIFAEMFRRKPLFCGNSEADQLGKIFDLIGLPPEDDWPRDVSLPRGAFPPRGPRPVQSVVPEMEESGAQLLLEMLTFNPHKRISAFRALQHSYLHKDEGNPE
T7 sequence (Q8TDX7 whole entry): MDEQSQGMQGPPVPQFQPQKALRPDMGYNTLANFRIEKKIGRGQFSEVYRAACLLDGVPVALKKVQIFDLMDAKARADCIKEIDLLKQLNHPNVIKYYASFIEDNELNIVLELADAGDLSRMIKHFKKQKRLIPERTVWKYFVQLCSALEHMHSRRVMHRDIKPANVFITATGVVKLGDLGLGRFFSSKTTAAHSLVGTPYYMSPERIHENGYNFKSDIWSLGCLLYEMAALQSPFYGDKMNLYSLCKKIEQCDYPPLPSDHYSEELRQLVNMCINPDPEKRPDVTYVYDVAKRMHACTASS
T1 sequence (O75582 whole entry): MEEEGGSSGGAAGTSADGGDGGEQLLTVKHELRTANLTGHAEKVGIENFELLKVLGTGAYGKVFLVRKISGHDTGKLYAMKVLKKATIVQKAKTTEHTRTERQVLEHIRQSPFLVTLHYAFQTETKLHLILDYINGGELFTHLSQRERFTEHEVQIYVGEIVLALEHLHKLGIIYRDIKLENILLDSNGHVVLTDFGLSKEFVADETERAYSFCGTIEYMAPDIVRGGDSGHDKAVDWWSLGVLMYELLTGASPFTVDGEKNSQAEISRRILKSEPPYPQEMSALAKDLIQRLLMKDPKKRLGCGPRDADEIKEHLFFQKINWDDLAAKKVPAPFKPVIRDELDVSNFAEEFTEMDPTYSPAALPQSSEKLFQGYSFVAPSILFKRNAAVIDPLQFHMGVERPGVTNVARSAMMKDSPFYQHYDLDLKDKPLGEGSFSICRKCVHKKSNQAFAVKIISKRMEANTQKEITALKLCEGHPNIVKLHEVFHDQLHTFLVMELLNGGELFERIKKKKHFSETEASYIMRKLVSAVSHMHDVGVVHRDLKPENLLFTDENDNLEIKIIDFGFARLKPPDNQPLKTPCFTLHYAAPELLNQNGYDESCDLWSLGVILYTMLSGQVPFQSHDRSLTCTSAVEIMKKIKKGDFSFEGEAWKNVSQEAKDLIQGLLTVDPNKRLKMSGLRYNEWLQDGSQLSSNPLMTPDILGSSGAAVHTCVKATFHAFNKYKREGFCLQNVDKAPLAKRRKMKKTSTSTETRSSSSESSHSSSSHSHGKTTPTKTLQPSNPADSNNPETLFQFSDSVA

As for `CNC(=O)c1ccc2c(c1)C(=O)c1ccc(Nc3ccc(F)c(NC(=O)C4CC4)c3)cc1CC2` [Compound 2015], the remaining activity at 1 µM at 340 wild-type kinases [1] came out at 90.2%; at 340 wild-type kinases [2] it was 98.4%; at 340 wild-type kinases [3], 80.8%; on 340 wild-type kinases [5], 94.9%; on 340 wild-type kinases [7] it was 110%; on 340 wild-type kinases [8], 118%. The remaining activity at 0.2 µM came out at 108% at 340 wild-type kinases [4], 94.8% at 340 wild-type kinases [6], 93.3% at 340 wild-type kinases [9] and 102% on 340 wild-type kinases [10].

Values taken from paper PMC11864979, “First-in-class ultralong-target-residence-time p38α inhibitors as a mitosis-targeted therapy for colorectal cancer” (Nature Cancer, 2025).
